Laboratory results reported in the NIST ThermoML archive (doi:10.1016/j.jct.2005.03.023).

Test: mn = molality of the nth substance listed, in mol/kg
Settings: 101.3 kPa, Liquid

O=C[C@H](O)[C@@H](O)[C@H](O)CO [D-xylose] + O
mass density [kg/m3]
Settings | m1 = 0.25 | m1 = 0.4 | m1 = 0.55 | m1 = 0.7 | m1 = 0.85 | m1 = 1
278.15 K | 1013.81 | 1021.78 | 1029.49 | 1036.97 | 1044.24 | 1051.27
288.15 K | 1012.76 | 1020.47 | 1028.02 | 1035.37 | 1042.46 | 1049.35
298.15 K | 1010.39 | 1018.06 | 1025.49 | 1032.72 | 1039.74 | 1046.52
308.15 K | 1007.15 | 1014.77 | 1022.12 | 1029.24 | 1036.18 | 1042.87
318.15 K | 1003.29 | 1010.79 | 1018.05 | 1025.13 | 1031.95 | 1038.63
